Key:
PARP1 [1] = target: T1, PARP1 (Homo sapiens (Human), UniProt P09874); test: cell-based assay (Proliferation Assay (PARP Inhibitors) in DLD-1 wt and DLD-1 BRCA2), Table 1
Experimental: Proliferation Assay (PARP Inhibitors) in DLD-1 wt and DLD-1 BRCA2
DLD-1-wt and DLD-1 mutant cells are cultured in RPMI 1640+10% FBS+1% PS. The cells are harvested into culture media for 2-3 days. The cells are diluted into culture media (density 2˜3×10^6) and 40 μL of cell suspension (50 cells/well for DLD-1 wt and 50 cells/well for DLD-1 BRCA (-/-). The plates are covered and spun at rt at 1000 rpm, for 1 minute and then transferred. The plates are placed into 37° C. 5% CO2 incubator overnight. Test compounds are dissolved at 10 mM DMSO stock solution and then 40 μL of stock solution is transferred to a 384 PP-plate. A 10-point dilution is carried out by transferring 10 uL compound into 30 μL DMSO by using TECAN (EVO200) liquid handler. The plates are spun at rt at 1000 rpm for 1 minute and then shaken on a plate shaker for 2 minutes. Forty nL of diluted compound is transferred into the cell plate by using a liquid handler. After 7 days of incubation, a CTG detection assay is performed. The CTG detection assay is carried out by removing the plates from the incubators and then equilibrated at rt for 15 minutes. The CellTiter Glo reagents are thawed and equilibrated at rt. CellTiter-Glo reagent ([…]) is added into each well, and the plates are placed at rt for 30 minutes followed by reading on EnVision. The inhibition activity is calculated using the formula: % Inhibition=100×(LumHC−LumSample)/(LumHC−LumLC).
In Table 1, ‘A’ indicates an IC50 of <0.1 μM, ‘B’ indicates an IC50 of ≥0.1 μM and <1.0 μM, and ‘C’ indicates an IC50 of ≥[…]. As shown by the results in Table 1, compounds of Formula (I), including pharmaceutically acceptable salts thereof, are effective PARP1 inhibitors.
Target sequence in this assay (P09874 whole entry): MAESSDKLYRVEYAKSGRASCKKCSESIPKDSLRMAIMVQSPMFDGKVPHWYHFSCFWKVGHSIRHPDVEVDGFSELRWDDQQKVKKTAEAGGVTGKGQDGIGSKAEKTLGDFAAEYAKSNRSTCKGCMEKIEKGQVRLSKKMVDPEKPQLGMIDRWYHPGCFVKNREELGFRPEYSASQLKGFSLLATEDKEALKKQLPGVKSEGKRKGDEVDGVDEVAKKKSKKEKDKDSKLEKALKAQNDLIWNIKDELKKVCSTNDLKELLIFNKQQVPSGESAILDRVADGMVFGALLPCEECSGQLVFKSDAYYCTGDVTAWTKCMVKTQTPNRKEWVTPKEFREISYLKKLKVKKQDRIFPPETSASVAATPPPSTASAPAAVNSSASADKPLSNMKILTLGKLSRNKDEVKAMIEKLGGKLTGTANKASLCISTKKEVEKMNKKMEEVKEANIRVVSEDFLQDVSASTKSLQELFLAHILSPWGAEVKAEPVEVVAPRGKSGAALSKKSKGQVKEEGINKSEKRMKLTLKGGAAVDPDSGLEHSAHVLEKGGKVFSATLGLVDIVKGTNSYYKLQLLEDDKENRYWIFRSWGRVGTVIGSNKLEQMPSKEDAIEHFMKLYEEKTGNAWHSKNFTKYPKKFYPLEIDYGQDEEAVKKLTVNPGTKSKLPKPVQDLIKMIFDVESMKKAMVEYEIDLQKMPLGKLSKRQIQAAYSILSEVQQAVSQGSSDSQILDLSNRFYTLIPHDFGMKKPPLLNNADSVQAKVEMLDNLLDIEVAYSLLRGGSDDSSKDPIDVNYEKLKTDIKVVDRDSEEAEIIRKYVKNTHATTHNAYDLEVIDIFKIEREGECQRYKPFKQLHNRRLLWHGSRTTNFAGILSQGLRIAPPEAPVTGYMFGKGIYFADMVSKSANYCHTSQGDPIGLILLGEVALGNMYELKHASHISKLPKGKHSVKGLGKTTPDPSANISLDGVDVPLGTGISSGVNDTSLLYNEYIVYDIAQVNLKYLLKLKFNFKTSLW

PARP1 [2] = target: T1, PARP1; test: biochemical assay (FP Binding Assay PARP1), Table 2
Experimental: FP Binding Assay (PARP1, PARP2)
The PARP1 and PARP 2 protein and the PARPi-FL were purchased from BPS Bioscience. The assay buffer was 50 mM Tris pH 8.0, 0.001% Triton X-100, 10 mM MgCl2, 150 mM NaCl. The compounds were diluted into top point concentration in 384PP-plate and transferred serially into an Optiplate-384F plate. Compound (20 nL) or DMSO was added to assay plate and then 10 μL of 40 nM PARP1 or PARP2 (diluted using assay buffer) was added. The assay plate was centrifuged at 1000 rpm for 1 min and then incubated for 30 min at rt. 6 nM PARPi-FL (diluted using assay buffer) (10 uL) was added to the plate (final concentration of PARP1 and PARP2 was 20 nM, and PARPi-FL was 3 nM). After centrifuging at 1000 rpm for 1 min, the assay plate was incubated at rt 4 h. The plates were read using Envision with Excitation filter. The data analysis was done by calculating the inhibition rate using mP value using the following equation. Inhibition (%)=(1−mpC−mpL)/mpH−mpL×100%.
As shown by the results in Table 2, compounds of Formula (I), including pharmaceutically acceptable salts thereof, are effective PARP1 inhibitors.
Target sequence in this assay (P09874 whole entry, species assumed): as the sequence (P09874 whole entry) above

| SMILES | IC50 (PARP1 [1]) [nM] | IC50 (PARP1 [2]) [nM] |
| --- | --- | --- |
| CCC1Oc2ccc(CN3CCN(c4ccc(C(=O)NC)nc4)CC3)cc2NC1=O (centres unmarked) [Compound A1] | < 100 | – |
| CNC(=O)c1ccc(N2CCN(Cc3ccc4c(c3)NC(=O)C3(CC3)O4)CC2)c(F)n1 [Compound A7] | < 100 | < 5 |
| CNC(=O)c1ccc(N2CCN(Cc3ccc4c(c3F)NC(=O)C3(CC3)O4)CC2)c(F)n1 [Compound A9] | < 100 | – |
| CC[C@H]1Oc2ccc(CN3CCN(c4ccc(C(=O)NC)nc4C)CC3)cc2NC1=O [Compound 2aa] | < 100 | – |
| CC[C@H]1Oc2ccc(CN3CCN(c4ccc(C(=O)NC)nc4)CC3)cc2NC1=O [Compound 1aa] | < 100 | – |
| CC[C@@H]1Oc2ccc(CN3CCN(c4ccc(C(=O)NC)nc4)CC3)cc2NC1=O (single isomer, unassigned) [Compound 1ab] | < 100 | – |
| CC[C@@H]1Oc2ccc(CN3CCN(c4ccc(C(=O)NC)nc4C)CC3)cc2NC1=O (single isomer, unassigned) [Compound 2ab] | < 100 | – |
